The source of these data is US20220002279A1, “NOVEL IMIDAZOLE DERIVATIVE” (priority 2018, published 2022).

For orientation: IC50 means the concentration needed to halve the response being measured. One may read the MIC as the smallest concentration in the dilution series that meets the test's criterion for growth inhibition.

Assay [1] has as its target T1, Escherichia coli LpxC enzyme (Escherichia coli, UniProt P0A725).
T1 construct: made in house; host or cells: Escherichia coli
T1 sequence (P0A725 1-305): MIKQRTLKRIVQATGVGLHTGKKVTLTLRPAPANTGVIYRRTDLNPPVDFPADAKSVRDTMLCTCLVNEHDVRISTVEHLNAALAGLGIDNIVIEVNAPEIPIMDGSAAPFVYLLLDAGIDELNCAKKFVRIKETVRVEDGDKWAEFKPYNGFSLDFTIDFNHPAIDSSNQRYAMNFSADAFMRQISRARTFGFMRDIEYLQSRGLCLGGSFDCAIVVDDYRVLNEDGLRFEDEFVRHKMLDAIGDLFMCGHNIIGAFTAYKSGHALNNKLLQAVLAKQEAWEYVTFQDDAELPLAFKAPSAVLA
As to the kind of experiment: Inhibitory activity on Escherichia coli LpxC enzyme (LCMS method). The format is biochemical. From the text:
Test Example 3 Evaluation of the Inhibitory Activity on Escherichia coli LpxC Enzyme (LCMS Method)
To assay the activity of Escherichia coli LpxC enzyme, LpxC was reacted with its substrate, UDP-3-O-(R-3-hydroxymyristoyl)-N-acetylglucosamine, and the amount of the reaction product was quantified by liquid chromatography tandem mass spectrometry.
Specifically, to 3.1 nmol/L Escherichia coli LpxC enzyme (as acquired by preparing chromosomal DNA from Escherichia coli, obtaining the Escherichia coli LpxC genes by PCR (polymerase chain reaction) using LpxC specific primer, and incorporating the genes into a vector, followed by expression using Escherichia coli), 20 μmol/L UDP-3-O-(R-3-hydroxymyristoyl)-N-acetylglucosamine (Alberta) was added, and the mixture was incubated at room temperature for 120 minutes. This reaction was performed in a 40 mmol/L-2-morpholinoethanesulfonic acid buffer solution (pH 6.5) containing 0.02% Brij 35, 25 nmol/L-zinc chloride, and 80 μmol/L-dithiothreitol. The reaction was terminated by the addition of acetonitrile containing 25 μmol/L-UDP-N-acetylglucosamine as an internal standard to the reaction mixture. Centrifugation was performed and the amount of the substrate and the reaction product in the supernatant was detected by liquid chromatography tandem mass spectrometry. An inhibition curve was obtained by performing the aforementioned reaction in the presence of various concentrations of test compounds. From this inhibition curve, the concentration of test compound at which the amount of the reaction product was suppressed by 50% (IC50 value) was determined, which was used as an index for the inhibitory activity on Escherichia coli LpxC enzyme.

Assay [2] has as its system Escherichia coli strain ATCC25922. The experiment in a line: Antimicrobial activity, MIC by broth microdilution. The format is cell-based. Particulars: ATCC25922, 18 h, cation-adjusted Mueller-Hinton broth, about 5×10^5 CFU/mL, 35° C., about 18 hours, read-out: MIC Escherichia coli ATCC25922. Put shortly: (§1)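 CLSI-based broth microdilution in cation-adjusted Mueller-Hinton broth, inoculum about 5×10^5 CFU/mL from overnight heart infusion agar culture. Incubation 35° C. about 18 h; MIC is the lowest concentration with no visible growth.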
(In general: In broth dilution the organism is exposed to a series of concentrations in liquid medium.)

Assay [3] deals with Pseudomonas aeruginosa strain ATCC27853. The experiment in a line: Antimicrobial activity, MIC by broth microdilution. The format is cell-based. Particulars: ATCC27853, 18 h, cation-adjusted Mueller-Hinton broth, about 5×10^5 CFU/mL, 35° C., about 18 hours, read-out: MIC Pseudomonas aeruginosa ATCC27853. Put shortly: as §1
In assay [4] the test system is Klebsiella pneumoniae strain ATCC13883. As to the kind of experiment: Antimicrobial activity, MIC by broth microdilution. Particulars: ATCC13883, cation-adjusted Mueller-Hinton broth, about 5×10^5 CFU/mL, 35° C., about 18 hours, read-out: MIC Klebsiella pneumoniae ATCC13883. In kind it is cell-based. Summed up: as §1
For assay [5], the target named is T2, Pseudomonas aeruginosa LpxC enzyme (Pseudomonas aeruginosa, UniProt P47205).
T2 construct: made in house; host or cells: Escherichia coli
T2 sequence (P47205 1-303): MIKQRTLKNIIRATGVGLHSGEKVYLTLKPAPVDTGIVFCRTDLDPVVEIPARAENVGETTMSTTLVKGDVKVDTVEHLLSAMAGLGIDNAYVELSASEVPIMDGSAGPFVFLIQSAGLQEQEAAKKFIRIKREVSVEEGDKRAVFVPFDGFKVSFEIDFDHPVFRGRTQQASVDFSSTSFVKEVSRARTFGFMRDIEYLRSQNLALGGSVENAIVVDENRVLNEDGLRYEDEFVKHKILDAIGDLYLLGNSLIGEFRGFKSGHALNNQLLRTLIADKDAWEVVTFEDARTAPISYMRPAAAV
As to the kind of experiment: Inhibitory activity on Pseudomonas aeruginosa LpxC enzyme (fluorescamine method). The format is biochemical. Particulars: fluorescamine detection; 3.6 nmol/L enzyme, 20 μmol/L substrate, pH 8.0, 60 min. The source says: Test Example 1 Evaluation of the Inhibitory Activity on Pseudomonas aeruginosa LpxC Enzyme (Fluoresamine Method)
To assay the activity of Pseudomonas aeruginosa LpxC enzyme, LpxC was reacted with its substrate, UDP-3-O-(R-3-hydroxydecanoyl)-N-acetylglucosamine, and the amount of the reaction product was quantified by the amino groups present in the product.
Specifically, to 3.6 nmol/L Pseudomonas aeruginosa LpxC enzyme (as acquired by preparing chromosomal DNA from Pseudomonas aeruginosa, obtaining the Pseudomonas aeruginosa LpxC genes by PCR (polymerase chain reaction) using LpxC specific primer, and incorporating the genes into a vector, followed by expression using Escherichia coli), 20 μmol/L UDP-3-O-(R-3-hydroxydecanoyl)-N-acetylglucosamine (Carbosynth) was added, and the mixture was incubated at room temperature for 60 minutes. This reaction was performed in a 40 mmol/L-HEPES buffer solution (pH 8.0) containing 0.02% Brij 35 and 25 nmol/L-zinc chloride. The reaction was terminated by the addition of 1.0 mg/mL-fluorescamine dissolved in a solvent obtained by mixing an equal amount of acetonitrile and dimethylformamide with the reaction mixture, and then, a 0.2 mol/L-sodium phosphate buffer solution (pH 8.0) was added thereto, and the amount of the reaction product was detected at an excitation wavelength/fluorescence wavelength=390 nm/495 nm. An inhibition curve was obtained by performing the aforementioned reaction in the presence of various concentrations of test compounds. From this inhibition curve, the concentration of test compound at which the amount of the reaction product was suppressed by 50% (IC50 value) was determined, which was used as an index for the inhibitory activity on Pseudomonas aeruginosa LpxC enzyme.

Where [6] appears, read: LC-MS/MS detection, 3.1 nmol/L enzyme, 20 μmol/L substrate, pH 6.5, 120 min, read-out: IC50 (inhibitory activity on Escherichia coli LpxC enzyme, LCMS method).

Structures are written as SMILES. Converted amounts (≈) assume the structure as drawn. Where two headings read alike, the source gives them in different places.

As to `C[C@H](O)c1nccn1Cc1cc(-c2ccc(C#CC34CC(N)(C3)C4)cc2)on1` [Compound 17, (1S)-1-{1-[(5-(4-[(3-aminobicyclo[1.1.1]pentan-1-yl)ethynyl]phenyl}-1,2-oxazol-3-yl)methyl]-1H-imidazol-2-yl}ethan-1-ol], the IC50 in assay [1] (setting [6]) was 0.0491 µM; in assay [5], 0.0138 µM. For the same compound, the MIC in assay [2] is 0.5 µg/mL (≈ 1.34 µM); in assay [3] it was 16 µg/mL (≈ 42.7 µM); in assay [4], 0.5 µg/mL (≈ 1.34 µM).
Turning to `C[C@H](O)c1nccn1Cc1cc(-c2ccc(C#CC34CC(N)(C3)C4)cc2)no1` [Compound 28, (1S)-1-{1-[(3-(4-[(3-aminobicyclo[1.1.1]pentane-1-yl)ethynyl]phenyl}-1,2-oxazol-5-yl)methyl]-1H-imidazol-2-yl}ethan-1-ol], the IC50 in assay [1] (setting [6]) was determined as 0.0646 µM. In addition, the MIC is 0.5 µg/mL (≈ 1.34 µM) in assay [2], 64 µg/mL (≈ 171 µM) in assay [3] and 2 µg/mL (≈ 5.34 µM) in assay [4].
On the same counts, the results for `C[C@H](O)c1nccn1Cc1cc(-c2ccc(C#C[C@@H]3[C@H]4CN(C(=O)CC(C)(C)N)C[C@@H]34)cc2)on1` [Compound 62, 3-amino-1-[(1R,5S,6s)-6-((4-[3-((2-[(1S)-1-hydroxyethyl]-1H-imidazol-1-yl}methyl)-1,2-oxazol-5-yl]phenyl)ethynyl)-3-azabicyclo[3.1.0]hexan-3-yl]-3-methylbutan-1-one] are less than 0.037 µM, 8 µg/mL (≈ 16.9 µM), 8 µg/mL (≈ 16.9 µM) and 32 µg/mL (≈ 67.6 µM).
In the case of `C[C@H](O)c1nccn1Cc1cc(-c2ccc(C#C[C@@H]3[C@H]4CN(C(=O)CCN)C[C@@H]34)cc2)on1` [Compound 61, 3-Amino-1-[(1R,5S,6s)-6-({4-[3-({2-[(1S)-1-hydroxyethyl]-1H-imidazol-1-yl}methyl)-1,2-oxazol-5-yl]phenyl}ethynyl)-3-azabicyclo[3.1.0]hexan-3-yl]propan-1-one], in assay [1] (setting [6]), the IC50 was less than 0.037 µM. For the same compound, the values for the MIC in assay [2], in assay [3] and in assay [4] were 8 µg/mL (≈ 18 µM), 4 µg/mL (≈ 8.98 µM) and 16 µg/mL (≈ 35.9 µM), respectively.
On the same counts, the results for `C[C@H](O)c1nccn1Cc1cc(-c2ccc(C#CC(C)(C)N)cc2)on1` [Compound 33] are greater than 3 µM, 32 µg/mL (≈ 91.3 µM), greater than 128 µg/mL and 64 µg/mL (≈ 183 µM).
Regarding `Cc1cnc([C@H](C)O)n1Cc1cc(-c2ccc(C#CC3(N)CC3)cc2)on1` [Compound 64, (1S)-1-{1-[(5-{4-[(1-Aminocyclopropyl)ethynyl]phenyl}-1,2-oxazol-3-yl)methyl]-5-methyl-1H-imidazol-2-yl}ethan-1-ol], in assay [1], the IC50 came out at 0.176 µM. Moreover, the MIC in assay [2] is 2 µg/mL (≈ 5.52 µM); in assay [3], greater than 128 µg/mL; in assay [4], 4 µg/mL (≈ 11 µM).
For `C[C@H](O)c1nccn1[C@H](CN)c1cc(-c2ccc(C#CCCCO)cc2)on1` [Compound 18, 5-(4-{3-[(1R)-2-Amino-1-{2-[(1S)-1-hydroxyethyl]-1H-imidazol-1-yl}ethyl]-1,2-oxazol-5-yl}phenyl)pent-4-yn-1-ol], the IC50 in assay [1] amounted to 0.0697 µM; in assay [5] it was 0.00604 µM. The MIC stood at 16 µg/mL (≈ 42.1 µM) in assay [3] and 8 µg/mL (≈ 21 µM) in assay [4].
For the compound `C[C@H](O)c1nccn1Cc1cc(-c2ccc(C#CC3(N)CC3)cc2)no1` [Compound 27, (1S)-1-{1-[(3-(4-[(1-aminocyclopropyl)ethynyl]phenyl}-1,2-oxazol-5-yl)methyl]-1H-imidazol-2-yl}ethan-1-ol], in assay [1] (setting [6]), the IC50 stood at 0.193 µM. Besides, the minimum inhibitory concentration (MIC) was 1 µg/mL (≈ 2.87 µM) in assay [2], greater than 128 µg/mL in assay [3] and 4 µg/mL (≈ 11.5 µM) in assay [4].
On the same counts, the results for `C[C@H](O)c1nccn1Cc1cc(-c2ccc(C#CC3CC(N)(C(N)=O)C3)cc2)on1` (stereo partly drawn) [Compound 25, 1-Amino-3-({4-[3-({2-[(1S)-1-hydroxyethyl]-1H-imidazol-1-yl}methyl)-1,2-oxazol-5-yl]phenyl}ethynyl)cyclobutane-1-carboxamide] are 0.0522 µM, 2 µg/mL (≈ 4.93 µM), 32 µg/mL (≈ 78.9 µM) and 8 µg/mL (≈ 19.7 µM).
Turning to `C[C@H](O)c1nccn1Cc1cc(-c2ccc(C#CC3CC3CN)cc2)on1` (stereo in doubt) [Compound 8, (1S)-1-(1-{[5-(4-{[trans-2-(aminomethyl)cyclopropyl]ethynyl}phenyl)-1,2-oxazol-3-yl]methyl}-1H-imidazol-2-yl)ethan-1-ol], the IC50 in assay [1] (setting [6]) worked out at 0.0678 µM; in assay [5], 0.0305 µM. The MIC in assay [3] is 16 µg/mL (≈ 44.1 µM); in assay [4], 64 µg/mL (≈ 177 µM).
Consider `C[C@H](O)c1nccn1Cc1cc(-c2ccc(C#CC3(N)COC3)cc2)on1` [Compound 40, (1S)-1-{1-[(5-(4-[(3-aminooxetan-3-yl)ethynyl]phenyl}-1,2-oxazol-3-yl)methyl]-1H-imidazol-2-yl}ethan-1-ol], for which, in assay [1] (setting [6]), the half-inhibitory concentration (IC50) stood at 0.14 µM. The MIC in assay [2] was 16 µg/mL (≈ 43.9 µM); in assay [3], greater than 128 µg/mL; in assay [4], 32 µg/mL (≈ 87.8 µM).
In the case of `C[C@H](O)c1nccn1[C@H](CN)c1cc(-c2ccc(C#CC34CC(N)(C3)C4)cc2)on1` [Compound 20, (1S)-1-{1-[(1R)-2-amino-1-(5-{4-[(3-aminobicyclo[1.1.1]pentan-1-yl)ethynyl]phenyl}-1,2-oxazol-3-yl)ethyl]-1H-imidazol-2-yl}ethan-1-ol], the IC50 in assay [1] (setting [6]) turned out to be 0.279 µM. Besides, the MIC in assay [2] was 0.5 µg/mL (≈ 1.24 µM); in assay [3], 4 µg/mL (≈ 9.91 µM); in assay [4], 2 µg/mL (≈ 4.96 µM).
